Earlier results in patent US7205435B2 (priority 2001, dated 2007).

System: mouse phrenic nerve
Settings: in vivo

## CC(C)C[C@H](NP(=O)(O)O[C@@H]1O[C@@H](C)[C@H](O)[C@@H](O)[C@H]1O)C(=O)N[C@@H](Cc1c[nH]c2ccccc12)C(=O)O [phosphoramidon]
  effective dose: 0.2 mM
